One assay concerns the target T1, human TRPV4 (hTRPV4/CHO cells) (Homo sapiens, UniProt Q9HBA0).
T1 construct: expressed in transfected cells; host or cells: CHO-K1
Description: Test Example 1: TRPV4 inhibitory activity (IC50 value), 4α-PDD stimulation, Fluo4 calcium fluorescence (FLIPR TETRA). It counts as cell-based. The following applies: 1 μmol/L 4α-PDD, Fluo4-AM, read-out: TRPV4 inhibitory activity (IC50 value).
T1 sequence (Q9HBA0 whole entry): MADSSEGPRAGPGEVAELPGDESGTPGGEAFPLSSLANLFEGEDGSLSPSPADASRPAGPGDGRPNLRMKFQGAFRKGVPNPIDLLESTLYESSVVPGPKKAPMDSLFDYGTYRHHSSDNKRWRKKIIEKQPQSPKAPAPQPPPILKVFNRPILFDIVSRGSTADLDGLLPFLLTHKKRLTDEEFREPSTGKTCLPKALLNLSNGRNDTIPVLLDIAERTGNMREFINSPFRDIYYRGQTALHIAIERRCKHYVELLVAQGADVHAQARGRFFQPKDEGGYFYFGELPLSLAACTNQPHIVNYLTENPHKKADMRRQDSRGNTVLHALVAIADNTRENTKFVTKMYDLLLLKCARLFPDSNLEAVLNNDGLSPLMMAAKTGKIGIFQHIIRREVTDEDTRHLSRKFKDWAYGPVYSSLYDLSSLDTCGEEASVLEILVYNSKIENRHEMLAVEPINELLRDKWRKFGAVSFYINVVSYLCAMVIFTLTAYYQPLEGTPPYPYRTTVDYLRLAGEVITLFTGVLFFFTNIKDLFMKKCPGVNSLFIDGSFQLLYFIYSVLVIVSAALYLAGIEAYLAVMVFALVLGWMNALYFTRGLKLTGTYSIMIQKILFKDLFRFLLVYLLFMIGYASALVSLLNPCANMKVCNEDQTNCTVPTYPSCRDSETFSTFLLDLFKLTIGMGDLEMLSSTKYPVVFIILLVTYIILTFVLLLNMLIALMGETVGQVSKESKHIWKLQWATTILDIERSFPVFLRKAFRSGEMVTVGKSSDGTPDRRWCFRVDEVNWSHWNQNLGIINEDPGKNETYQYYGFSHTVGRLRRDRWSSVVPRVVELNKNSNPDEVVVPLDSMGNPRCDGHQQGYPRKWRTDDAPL
As for `CC(=O)NCc1nc(CO)sc1-c1csc(NC(=O)Cc2ccc(S(=O)(=O)C(F)(F)F)cc2)n1` [Compound I-382], the IC50 (commonly the concentration needed to halve the response being measured) is 0.022 µM.

The same assay, now with this note: Test Example 1, 4α-PDD stimulation, read-out: Test 1 IC50.
As to `CC(=O)N1C[C@H](Oc2ccccc2)C[C@H]1C(=O)Nc1nc(-c2sc(C)nc2C)cs1` [Compound I-251], the IC50 was 1 to 8 µM.

Regarding `Cc1nc(C)c(-c2csc(Nc3cnccn3)n2)s1` [II-34], the IC50 was less than 0.1 µM.

For `Cc1nc(C)c(-c2csc(NC(=O)Cn3cc(C#N)cn3)n2)s1` [Compound I-123], the IC50 was 1 to 8 µM.

With `Cc1nc(C)c(-c2csc(NC(=O)Cc3ccc(C(F)(F)F)cn3)n2)s1` [Compound I-104], the IC50 was less than 0.1 µM.

`O=C(Cc1ccc(S(=O)(=O)C(F)(F)F)cc1)Nc1nc(-c2sc(CO)nc2CCN2CCOCC2)cs1` [Compound I-375]: the IC50 was less than 0.1 µM.

As for `Cc1nc(CO)oc1-c1csc(NC(=O)Cn2cc(C(F)(F)F)cn2)n1` [Compound I-419], the IC50 is 1 to 8 µM.

For `Cc1nc(C(F)F)sc1-c1csc(NC(=O)C2CCC(C(F)(F)F)CC2)n1` (centres unmarked) [Compound I-543], the IC50 lay within 0.1 to 1 µM.

In the case of `O=C(Nc1nc(-c2sc(CO)nc2CO)cs1)C1CC(OCC2CC2)C1` (centres unmarked) [Compound I-339], the IC50 lay within 1 to 8 µM.

`Cc1nc(C)c(-c2csc(NC(=O)Cc3cccc(S(=O)(=O)N[C@H](c4ccccc4)C(F)(F)F)c3)n2)s1` [Compound I-499]: the IC50 is less than 0.1 µM.

In the case of `O=C(Cc1ccc(S(=O)(=O)C(F)(F)F)cc1)Nc1nc(-c2sc(CO)nc2CO)cs1` [Compound I-174], the IC50 was less than 0.1 µM.

With `Cc1nc(C)c(-c2nc(NC(=O)Cc3c(F)cccc3F)sc2-c2ccc(N(C)C)cc2)s1` [Compound I-67], the 50% inhibitory concentration (IC50) was 1 to 8 µM.

For the compound `COC(=O)N1C[C@H](c2ccccc2)C[C@H]1C(=O)Nc1nc(-c2sc(C)nc2C)cs1` [Compound I-288], the IC50 is less than 0.1 µM.

For `Cc1nc(CO)sc1-c1csc(NC(=O)C2CCN(S(=O)(=O)C(F)(F)F)C2)n1` (centres unmarked) [Compound I-214], the IC50 lay in the range of 0.1 to 1 µM.

As to `Cc1nc(CO)sc1-c1csc(NC(=O)Cc2cnc(C(F)(F)F)cn2)n1` [Compound I-410], the IC50 was less than 0.1 µM.

On to `Cc1nc(CO)sc1-c1csc(NC(=O)C2CC(OCc3cccnc3)C2)n1` (centres unmarked) [Compound I-247], for which the IC50 lay within 1 to 8 µM.

For the compound `Cc1nc(C)c(-c2csc(NC(=O)Cn3cc(-c4ccc(S(C)(=O)=O)cc4)cn3)n2)s1` [Compound I-151], the IC50 was 0.1 to 1 µM.

As for `NCc1nc(CO)sc1-c1csc(NC(=O)C2CN(c3ccc(C(F)(F)F)cc3)C2)n1` [Compound I-340], the IC50 fell in the range of 0.1 to 1 µM.

Consider `NC(=O)c1nc(CO)c(-c2csc(NC(=O)C3CN(Cc4ccc(C(F)(F)F)cc4)C3)n2)s1` [Compound I-325], for which the IC50 was in the range of 0.1 to 1 µM.

Regarding `CON(C)C(=O)c1nc(C)c(-c2csc(NC(=O)Cc3c(F)cccc3F)n2)s1` [Compound I-105], the IC50 lay in the range of 1 to 8 µM.

Regarding `N#CCc1nc(CO)sc1-c1csc(NC(=O)Cc2ccc(S(=O)(=O)C(F)(F)F)cc2)n1` [Compound I-359], the IC50 is less than 0.1 µM.

In the case of `O=C(Nc1nc(-c2sc(CO)nc2CO)cs1)[C@@H]1C[C@@H](c2ccccc2)CN1S(=O)(=O)C(F)(F)F` [Compound I-338], the IC50 fell in the range of 0.1 to 1 µM.

As to `C=C(C)c1sc(NC(=O)Cc2c(F)cccc2F)nc1-c1sc(C)nc1C` [Compound I-71], the IC50 was 1 to 8 µM.

Consider `CC(OC(N)=O)c1nc(CO)sc1-c1csc(NC(=O)Cc2ccc(S(=O)(=O)C(F)(F)F)cc2)n1` (racemic) [Compound I-474], for which the IC50 was in the range of 0.1 to 1 µM.

Regarding `Cc1nc(C)c(-c2csc(NC(=O)Cc3ccc(S(=O)(=O)CC(F)F)cc3)n2)s1` [Compound I-143], the IC50 lay in the range of 0.1 to 1 µM.

Take `Cc1nc(C)c(-c2csc(NC(=O)[C@@H]3C[C@@H](N4CCC(c5ccccc5)CC4)CN3)n2)s1` [Compound I-274]: the IC50 lay in the range of 1 to 8 µM.

`CC(=O)NCc1nc(CO)sc1-c1csc(NC(=O)Cc2ccc(S(=O)(=O)C(F)(F)F)cc2)n1` [Compound I-382]: the IC50 is less than 0.1 µM.

As for `Cc1nc(CO)sc1-c1csc(NC(=O)/C=C/c2ccccc2)n1` [Compound I-462], the IC50 is 0.1 to 1 µM.

Take `CC(=O)c1nc(C)c(-c2csc(NC(=O)Cc3c(F)cccc3F)n2)s1` [Compound I-98]: the IC50 lay in the range of 0.1 to 1 µM.

As to `Cc1nc(C)c(-c2csc(NC(=O)Cc3cccc(OC(F)(F)F)c3)n2)s1` [Compound I-100], the IC50 was less than 0.1 µM.

Take `Cc1nc(C)c(-c2csc(NC(=O)[C@@H]3C[C@@H](c4ccccc4)CN3C(=O)C(F)(F)F)n2)s1` [Compound I-218]: the IC50 is less than 0.1 µM.

For the compound `Cc1nc(CO)sc1-c1csc(NC(=O)C2CC(OCc3ccncc3)C2)n1` (centres unmarked) [Compound I-240], the IC50 was in the range of 1 to 8 µM.

For `NC(=O)OCC(=O)NCc1nc(CO)sc1-c1csc(NC(=O)Cc2ccc(S(=O)(=O)C(F)(F)F)cc2)n1` [Compound I-440], the IC50 lay in the range of 0.1 to 1 µM.

With `Cc1nc(C)c(-c2nc(NC(=O)Cc3c(F)cccc3F)sc2C(=O)NCc2ccccc2)s1` [Compound I-83], the IC50 fell in the range of 1 to 8 µM.

For the compound `Cc1nc(C(=O)NCCO)sc1-c1csc(NC(=O)Cc2c(F)cccc2F)n1` [Compound I-125], the IC50 lay in the range of 1 to 8 µM.

As for `Cc1nc(C)c(-c2csc(NC(=O)C3CN(c4ccc(C(F)(F)F)nc4)C3)n2)s1` [Compound I-286], the IC50 was less than 0.1 µM.

Turning to `Cc1nc(CO)sc1-c1csc(NC(=O)C2CN(Cc3ccc(C(F)(F)F)cc3)C2)n1` [Compound I-208], the IC50 was less than 0.1 µM.

On to `CCOC(=O)N1C[C@H](c2ccccc2)C[C@H]1C(=O)Nc1nc(-c2sc(CO)nc2C)cs1` [Compound I-313], for which the IC50 is less than 0.1 µM.

With `CC(O)c1nc(CO)c(-c2csc(NC(=O)Cc3ccc(S(=O)(=O)C(F)(F)F)cc3)n2)s1` (racemic) [Compound I-500], the IC50 lay in the range of 0.1 to 1 µM.

Take `O=C(Cc1ccc(S(=O)(=O)C(F)(F)F)cc1)Nc1nc(-c2sc(CO)nc2CCO)cs1` [Compound I-366]: the IC50 was less than 0.1 µM.

With `Cc1nc(C(C)(C)O)c(-c2csc(NC(=O)Cc3c(F)cccc3F)n2)s1` [Compound I-128], the IC50 was in the range of 0.1 to 1 µM.

Turning to `CNC(=O)c1nc(C)c(-c2csc(NC(=O)Cc3c(F)cccc3F)n2)s1` [Compound I-113], the IC50 lay within 1 to 8 µM.

For `Cc1nc(C)c(-c2csc(NC(=O)Cc3cc(N)cc(C(=O)N[C@H](c4ccccc4)C(F)(F)F)c3)n2)s1` [Compound I-518], the IC50 was less than 0.1 µM.

For `CN(Cc1nc(CO)sc1-c1csc(NC(=O)Cc2ccc(S(=O)(=O)C(F)(F)F)cc2)n1)C(N)=O` [Compound I-391], the IC50 was 0.1 to 1 µM.

With `Cc1nc(C)c(-c2csc(NC(=O)C3Cc4ccc(Cl)c(Cl)c4O3)n2)s1` (centres unmarked) [Compound I-195], the IC50 was less than 0.1 µM.

On to `COC(=O)N1C[C@H](c2ccccc2)C[C@H]1C(=O)Nc1nc(-c2sc(CO)nc2C)cs1` [Compound I-323], for which the IC50 was less than 0.1 µM.

Regarding `Cc1nc(C)c(-c2csc(NC(=O)C3Cc4ccccc4N3)n2)s1` (centres unmarked) [Compound I-177], the IC50 lay within 0.1 to 1 µM.

For the compound `Cc1nc(CCl)c(-c2csc(NC(=O)Cc3ccc(S(=O)(=O)C(F)(F)F)cc3)n2)s1` [Compound I-484], the IC50 was less than 0.1 µM.

Take `Cc1nc(C(F)F)sc1-c1csc(NC(=O)C2CC2)n1` [Compound I-109]: the IC50 lay within 1 to 8 µM.

On to `COc1cc(CC(=O)Nc2nc(-c3sc(C)nc3C)cs2)cc(C(=O)NC(C)(C)C(F)(F)F)c1` [Compound I-528], for which the IC50 was less than 0.1 µM.

For `Cc1nc(C)c(-c2csc(NC(=O)Cc3cccc(C(=O)NC(C(C)(C)C)C(F)(F)F)n3)n2)s1` (centres unmarked) [Compound I-507], the IC50 is less than 0.1 µM.

On to `Cc1nc(C)c(-c2csc(NC(=O)[C@@H]3C[C@@H](Oc4ccccc4)CN3)n2)s1` [Compound I-244], for which the IC50 lay in the range of 0.1 to 1 µM.

`Cc1nc(CO)c(-c2csc(NC(=O)Cc3ccc(S(=O)(=O)C(F)(F)F)cc3)n2)s1` [Compound I-456]: the IC50 is less than 0.1 µM.

As for `O=C(Nc1nc(-c2sc(CO)nc2CO)cs1)[C@H]1C[C@H](F)C1` [Compound I-248], the IC50 fell in the range of 1 to 8 µM.

For the compound `Cc1nc(C)c(-c2csc(NC(=O)Cn3cc(-c4ccc(Cl)cc4)cn3)n2)s1` [Compound I-147], the IC50 is less than 0.1 µM.

In the case of `Cc1nc(CO)sc1-c1csc(NC(=O)CC2CC3(CCC3)C2)n1` [Compound I-457], the concentration for half-maximal inhibition (IC50) was less than 0.1 µM.

Regarding `Cc1nc(C)c(-c2csc(NC(=O)CN3CCC(c4ccccc4)CC3)n2)s1` [Compound I-152], the IC50 was 0.1 to 1 µM.

On to `CCNC(=O)c1nc(C)sc1-c1csc(NC(=O)Cc2c(F)cccc2F)n1` [Compound I-181], for which the IC50 was in the range of 1 to 8 µM.

On to `Cc1nc(C)c(-c2nc(NC(=O)Cc3c(F)cccc3F)sc2-c2cscn2)s1` [Compound I-61], for which the IC50 was in the range of 0.1 to 1 µM.

For `Cc1nc(C)c(-c2csc(NC(=O)C3Cc4ccccc4C3)n2)s1` [Compound I-88], the IC50 fell in the range of 1 to 8 µM.

In the case of `Cc1nc(CO)sc1-c1csc(Nc2ccccn2)n1` [II-32], the 50% inhibitory concentration (IC50) is less than 0.1 µM.

Take `Cc1nc(C)c(-c2csc(NC(=O)Cc3cccc(S(=O)(=O)Nc4ccc(C(F)(F)F)cc4)c3)n2)s1` [Compound I-498]: the IC50 is less than 0.1 µM.

Consider `Cc1nc(C)c(-c2nc(NC(=O)Cc3c(F)cccc3F)sc2C(=O)Nc2ccccc2)s1` [Compound I-75], for which the IC50 is 1 to 8 µM.

`Cc1nc(C)c(-c2csc(Nc3cccnc3)n2)s1` [II-40]: the IC50 was in the range of 0.1 to 1 µM.

Take `Cc1nc(C)c(-c2csc(NC(=O)C3CN(Cc4ccc(C(F)(F)F)cc4)C3)n2)s1` [Compound I-258]: the IC50 was less than 0.1 µM.

`Cc1nc(C)c(-c2csc(NC(=O)Cc3cc(C(=O)N[C@H](c4ccccc4)C(F)(F)F)cc([N+](=O)[O-])c3)n2)s1` [Compound I-517]: the IC50 was less than 0.1 µM.

With `Cc1nc(C)c(-c2csc(NC(=N)Cc3ccc(Cl)cc3)n2)s1` [II-31], the IC50 was 1 to 8 µM.

As for `Cc1nc(C)c(-c2csc(NCCOc3ccccc3)n2)s1` [II-47], the IC50 fell in the range of 0.1 to 1 µM.

In the case of `Cc1nc(C)c(-c2csc(NC(=O)[C@@H]3C[C@@H](c4ccccc4)CN3S(=O)(=O)C(C)C)n2)s1` [Compound I-301], the IC50 is less than 0.1 µM.

For `Cc1nc(C)c(-c2nc(NC(=O)Cc3c(F)cccc3F)sc2-c2ccncc2)s1` [Compound I-60], the IC50 is 1 to 8 µM.

Take `Cc1nc(CO)sc1-c1csc(NC(=O)CC2CCN(S(=O)(=O)CCC(F)(F)F)CC2)n1` [Compound I-452]: the IC50 was 1 to 8 µM.

(Values after patent publication US20170066759A1, “AROMATIC 5-MEMBERED HETEROCYCLIC DERIVATIVE HAVING TRPV4-INHIBITING ACTIVITY” (Shionogi & Co., Ltd., priority 2012, published 2017).)
